In patent publication US8334105B2, “Methods for treating cardiac disease by modifying an N-terminal domain of troponin I” (Northshore University Healthsystem, priority 2004, dated 2012):

How the values were obtained:
[1] = test system: isolated working mouse hearts; assay: Langendorff-Neely isolated working heart preparation
Protocol: Cardiac function of wild-type and transgenic mice were measured at 5-6 months of age using the Langendorff-Neely isolated working heart preparation, at a constant preload of 10 mmHg and an afterload of 55 mmHg, as previously described (29-31, incorporated herein by reference). Mice were anesthetized as above and the thoracic cavity was opened by a transverse incision to access the heart. Retrograde perfusion through the aorta was initiated within 60 seconds after removal of the heart. After establishing left atrial perfusion, the heart was switched to working mode. The hearts were perfused with Krebs-Henseleit bicarbonate buffer aerated with 95% O2-5% CO2 at 37° C. (pH=7.4). The buffer contents were as follows (in mM): 118 NaCl, 4.7 KCl, 2.25 CaCl2, MgSO4, 1.2 KH2PO4, 0.32 EGTA, 25 NaHCO3, and 11 D-glucose (29). Functions of the isolated working hearts were measured on intrinsic beats at 37° C. with no artificial pacing applied.
Aortic flow and coronary effluent were collected once every two minutes over a 30-minute period. Heart rate and the maximum rate of pressure development (dP/dt) were measured using an MLT844 pressure transducer (Capto, Horten, Norway) attached to the aortic cannula. […]
Stroke volume (μL/g heart tissue) was calculated as the sum of aortic flow and coronary effluent, normalized to heart rate. Stroke work (mL-mmHg/g heart tissue) was calculated as stroke volume X average aortic pressure (diastolic pressure+one-third of pulse pressure) (mmHg). During the collection of aortic flow, time to peak pressure (TTP) and the relaxation times (RT) at 10, 50 and 80% total relaxation (RT10, RT50 and RT80, respectively) were measured from the pressure traces. Systolic and diastolic pressure time integrals (STI, correlating with myocardial energy expenditure (31-34), and DTI, correlating with diastolic function and coronary perfusion (35-42), respectively) were calculated by integrating the systolic and diastolic portions of the pressure waves. […]

[2] = test system: actomyosin ATPase of mouse cardiac myofibrils; assay: Actomyosin MgATPase assay of isolated cardiac myofibrils (Ca2+ sensitivity); format: biochemical
Protocol: Mice were anesthetized with sodium pentobarbital (50 mg/kg body weight, i.p.). Hearts removed from transgenic or control mice were perfused in a retrograde manner, either with normal saline or with saline containing 20 nM isoproterenol. Cardiac myofibrils were prepared according to the method described by Solaro et al. (23, incorporated herein by reference) with modifications. These include the use of NaF (50 mM), EGTA (2.5 mM), and KH2PO4 as phosphatase inhibitors and phenylmethylsulphonyl fluoride (0.2 mM) as a protease inhibitor (24). The ventricular muscle was pulverized in a food blender for 10 seconds in 50 ml buffer containing 0.5% (v/v) Triton X-100®, 60 mM KCl, 30 mM imidazole, pH 7.0, 2 mM MgCl2, and 1 mM DTT, incubated for 5 min and centrifuged at 2,500×g for 2 min. Pellets were washed three times in buffer containing 60 mM KCl, 30 mM imidazole, pH 7.0, 2 mM MgCl2, and 1 mM DTT.
Actomyosin MgATPase assays were performed to titrate the Ca^2+ sensitivity of the transgenic and wild-type mouse cardiac myofibrils under constant ionic strength, using the stability constants compiled by Fabiato (25), and were performed at pH 7.0 with 50 mM imidazole, 50 mM KCl, and 2 mM MgATP at 37° C. Inorganic phosphate release was measured as the amount of heteropolymolybdenum (26) using an automated microtiter plate reader (Bio-Rad Benchmark) for optical density at 660 nm, as described previously (27, incorporated herein by reference).

transgenic mouse hearts = assay: Observation of transgenic mice and hearts for hypertrophy and abnormality; format: in vivo
Source text: Transgenic mice over-expressing various levels of cTnI-ND in the heart are apparently normal in life activities.

| Compound | −dP/dt produced by isoproterenol treatment in WT hearts ([1]; 10 nM isoproterenol, WT hearts) [mmHg-sec^−1] | effect of isoproterenol on velocity of contraction (+dP/dt) ([1]; 10 nM isoproterenol, WT, INT-cTnI-ND and H-cTnI-ND hearts) | effect of isoproterenol on relaxation velocity ([1]; 30 nM and 50 nM isoproterenol perfusions, all three groups of hearts) | maximum actomyosin ATPase rate with isoproterenol treatment, WT myofibrils ([2]; WT cardiac myofibrils, with isoproterenol treatment) [nmole Pi/mg protein/min] | pCa50 ([2]; myofibrils from isoproterenol perfused WT hearts) | hypertrophy (heart weight/body weight ratio, diameter of cardiac myocytes) (transgenic mouse hearts; compared with wild type controls) | anatomical or histological abnormality of hearts (transgenic mouse hearts; transgenic mouse hearts) | maximum Ca^2+-activated actomyosin ATPase rate ([2]; cTnI-ND cardiac myofibrils, base line) [nmole Pi/mg protein/min] | maximum actomyosin ATPase rate with isoproterenol treatment, cTnI-ND myofibrils ([2]; cTnI-ND cardiac myofibrils, with isoproterenol treatment) [nmole Pi/mg protein/min] |
| --- | --- | --- | --- | --- | --- | --- | --- | --- | --- |
| CC(C)NCC(O)c1ccc(O)c(O)c1 (stereo not drawn) [isoproterenol] | 2087±58 | increased in all three groups | significant increases in relaxation velocity | 418±57 | 5.91±0.05 | – | – | – | – |
| cTnI-ND: N-terminus truncated mouse cardiac troponin I that lacks amino acids 1-28, over-expressed in transgenic mouse hearts | – | – | – | – | – | No evidence of hypertrophy | no evidence of anatomical or histological abnormality | 417±48 | 421±43 |
